Key:
nutsedge, purple = experiment: Test E preemergence; type: in vivo, Cyperus rotundus; conditions: 21 days, scale 0 to 100
Excerpt: (§1) Seeds of plant species selected from bermudagrass (Cynodon dactylon), Surinam grass (Brachiaria decumbens), crabgrass, large (large crabgrass, Digitaria sanguinalis), crabgrass, naked (naked crabgrass, Digitaria nuda), foxtail, green (green foxtail, Setaria viridis), johnsongrass (Sorghum halepense), kochia (Kochia scoparia), morningglory (pitted morningglory, Ipomoea lacunosa), nutsedge, purple (purple nutsedge, Cyperus rotundus), ragweed (common ragweed, Ambrosia elation), mustard, black (black mustard, Brassica nigra), guineagrass (Panicum maximum), dallisgrass (Paspalum dilatatum), barnyardgrass (Echinochloa crus-galli), sandbur (southern sandbur, Cenchrus echinatus), sowthistle (common sowthistle, Sonchus oleraceous), ryegrass, Italian (Italian ryegrass, Lolium multiflorum), signalgrass (broadleaf signalgrass, Brachiaria platyphylla), dayflower, VA (Virginia (VA) dayflower, Commelina virginica), bluegrass (annual bluegrass, Poa annua), quackgrass (Elytrigia repens), mallow (common mallow, Malva sylvestris), buckwheat, wild (wild buckwheat, Polygonum convolvulus), leafy spurge (Euphorbia esula), common chickweed (Stellaria media), wild poinsettia (Euphorbia heterophylla), pigweed, palmer (palmer pigweed, Amaranthus palmeri), and pigweed (redroot pigweed, Amaranthus retroflexus) were planted into a blend of loam soil and sand and treated preemergence with test chemicals formulated in a non-phytotoxic solvent mixture which included a surfactant.
(§2) Treated plants and controls were maintained in a greenhouse for 21 days, after which time all species were compared to controls and visually evaluated. Plant response ratings, summarized in Table E, are based on a scale of 0 to 100 where 0 is no effect and 100 is complete control. A dash (-) response means no test result.

signalgrass = experiment: Test E preemergence; type: in vivo, Brachiaria platyphylla; conditions: 21 days, scale 0 to 100
Excerpt: as §1, §2

dayflower, VA = experiment: Test E preemergence; type: in vivo, Commelina virginica; conditions: 21 days, scale 0 to 100
Excerpt: as §1, §2

pigweed = experiment: Test E preemergence; type: in vivo, Amaranthus retroflexus; conditions: 21 days, scale 0 to 100
Excerpt: as §1, §2

galium = experiment: Test A postemergence; type: in vivo, Galium aparine
Method in brief: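 Greenhouse test in loam soil/sand blend; compounds formulated in non-phytotoxic solvent with surfactant, applied as preemergence directed soil spray or postemergence to plants 2–10 cm tall at one- to two-leaf stage. Injury rated visually versus untreated controls after approximately 10 days on a 0 (no effect) to 100 (complete control) scale.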

[1] = Postemergence, 500 g ai/ha, 0 to 100 scale (0 no effect, 100 complete control)
[2] = postemergence, 125 g ai/ha, about 10 days, visual rating on 0 to 100 scale (0 no effect, 100 complete control)

SMILES | Plant response rating, Nutsedge, Purple (nutsedge, purple; 16 g ai/ha) | Plant response rating, Nutsedge, Purple (nutsedge, purple; 31 g ai/ha) | Plant response rating, Nutsedge, Purple (nutsedge, purple; 62 g ai/ha) | Plant response rating, Signalgrass (signalgrass; 16 g ai/ha) | Plant response rating, Signalgrass (signalgrass; 31 g ai/ha) | Plant response rating, Signalgrass (signalgrass; 62 g ai/ha) | Plant response rating, Dayflower, VA (dayflower, VA; 16 g ai/ha) | Plant response rating, Dayflower, VA (dayflower, VA; 31 g ai/ha) | Plant response rating, Dayflower, VA (dayflower, VA; 62 g ai/ha) | Plant response rating, Pigweed (pigweed; 16 g ai/ha) | Plant response rating, Pigweed (pigweed; 31 g ai/ha) | Plant response rating, Pigweed (pigweed; 62 g ai/ha) | Galium plant response rating (galium; [1]) | Galium plant response rating (galium; [2]) | also measured
CCc1cc(C(=O)NC(C)C)nn1Cc1ccnc(C(F)(F)F)c1 [Compound 103] | 15 | 75 | 90 | 65 | 80 | 100 | 80 | 98 | 100 | 100 | 100 | 100 | – | – | Plant response rating, Nutsedge, Purple (nutsedge, purple; 125 g ai/ha): 98; Plant response rating, Nutsedge, Purple (nutsedge, purple; 250 g ai/ha): 100; Plant response rating, Signalgrass (signalgrass; 125 g ai/ha): 100; Plant response rating, Signalgrass (signalgrass; 250 g ai/ha): 100; Plant response rating, Dayflower, VA (dayflower, VA; 125 g ai/ha): 100; Plant response rating, Dayflower, VA (dayflower, VA; 250 g ai/ha): 100; Plant response rating, Pigweed (pigweed; 125 g ai/ha): 100; Plant response rating, Pigweed (pigweed; 250 g ai/ha): 100
CCONC(=O)c1cc(CC)n(Cc2cc(C(F)(F)F)no2)n1 [Compound 125] | – | – | – | – | – | – | – | – | – | – | – | – | 90 | 60 | –
CCOc1cc(C(=O)NC2CC2)nn1Cc1ccnc(OC(F)F)c1 [Compound 133] | – | – | – | – | – | – | – | – | – | – | – | – | 90 | 80 | –
CCOc1cc(C(=O)NC2CC2)nn1Cc1ccnc(C(F)(F)F)c1 [Compound 189] | 50 | 50 | 85 | 60 | 95 | 100 | 90 | 100 | 100 | 100 | 100 | 100 | – | – | Plant response rating, Nutsedge, Purple (nutsedge, purple; 4 g ai/ha): 0; Plant response rating, Nutsedge, Purple (nutsedge, purple; 8 g ai/ha): 10; Plant response rating, Signalgrass (signalgrass; 4 g ai/ha): 0; Plant response rating, Signalgrass (signalgrass; 8 g ai/ha): 30; Plant response rating, Dayflower, VA (dayflower, VA; 4 g ai/ha): 0; Plant response rating, Dayflower, VA (dayflower, VA; 8 g ai/ha): 30; Plant response rating, Pigweed (pigweed; 4 g ai/ha): 60; Plant response rating, Pigweed (pigweed; 8 g ai/ha): 60
CCc1cc(C(=O)NCC(F)(F)F)nn1Cc1cc(OC(F)F)nn1C [Compound 206] | – | – | – | – | – | – | – | – | – | – | – | – | 80 | – | Galium plant response rating (galium; Postemergence, 125 g ai/ha, 0 to 100 scale, 0 no effect, 100 complete control): 20
